Data on one substance can be found in paper PMC9961948, “Interaction of Amphipathic Peptide from Influenza Virus M1 Protein with Mitochondrial Cytochrome Oxidase” (International Journal of Molecular Sciences, 2023).

The experiment has as its target T1, cytochrome c oxidase (CcO) purified from heart mitochondria (Bos taurus, UniProt P00396+P07471+P68530).
T1 construct: Cytochrome c oxidase was purified from the heart mitochondria of Bos taurus; from tissue; host or cells: bovine heart mitochondria
The experiment in a line: Cytochrome oxidase activity of solubilized mitochondrial CcO (oxygen uptake). The class given is biochemical. Conditions: solubilized bovine heart CcO 20 nM; oxygen uptake, Clark electrode, 25 °C; BM 50 mM Hepes/Tris pH 7.6, 50 mM KCl, 1 mM (0.05%) DM; 5 mM ascorbate, 0.1 mM TMPD, 10 μM cytochrome c; fit by Equation (1); read-out: Inhibition of CcO, Solubilized, Ki(app).

In the case of Ac-STKLWEMLVELGNMDKAVKLWRKLSR-NH2 [A4], the Ki was 0.0223 mM.
